Converted amounts (≈) assume the structure as drawn.
What was measured:
MCF7 = test: Cytotoxicity against human MCF7 cells; type: functional
A549 = test: Cytotoxicity against human A549 cells; type: functional
[1] = Cytotoxicity against mouse 9PS cells; type: functional
HT-29 = test: Cytotoxicity against human HT-29 cells; type: functional
Artemia = test: Toxicity in brine shrimp; type: organism-based; conditions: in vivo
[2] = In vivo antitumor activity against mouse 3PS cells at 0.25 mg/kg, relative to control; type: functional
[3] = test system: Agrobacterium tumefaciens; test: Antitumor activity against Agrobacterium tumefaciens-induced crown gall tumors in potato by disk test; type: functional
[4] = Cytotoxicity against human 9KB cells; type: functional; conditions: read-out: ED50 (the source's name)

| SMILES | EC50 (MCF7; Homo sapiens, MCF7, read-out: ED50 (the source's name)) [µg/mL] | EC50 (A549; Homo sapiens, A549, read-out: ED50 (the source's name)) [µg/mL] | EC50 ([1]; Mus musculus, read-out: ED50 (the source's name)) [µg/mL] | EC50 (HT-29; Homo sapiens, HT-29, read-out: ED50 (the source's name)) [µg/mL] | LC50 (Artemia) [ppm] | ED50 (MCF7) [×10⁻⁵ ug/ml] | ED50 (A549) [×10⁻⁵ ug/ml] | ED50 [1] [×10⁻⁴ ug/ml] | T/C [2] [%] | ED50 (HT-29) [×10⁻⁵ ug/ml] | inhibition (INH) [3] [%] | EC50 [4] [µg/mL] |
| --- | --- | --- | --- | --- | --- | --- | --- | --- | --- | --- | --- | --- |
| CC[C@H]1CN2CCc3cc(OC)c(OC)cc3[C@@H]2C[C@@H]1CC1=NCCc2cc(O)c(OC)cc21 [PSYCHOTRINE] | > 10 | > 10 | 1 (≈ 2.15 µM) | > 10 | > 1000 | – | – | – | – | – | – | – |
| CC[C@H]1CN2CCc3cc(OC)c(OC)cc3[C@@H]2C[C@@H]1C[C@H]1NCCc2c1[nH]c1ccc(O)cc21 [TUBULOSINE] | – | – | – | – | 0.02 | <1 | <1 | 3.8 | 186 | <1 | 81 | 0.01 (≈ 0.021 µM) |

Source: ChEMBL document CHEMBL1158920, “Tubulosine: an antitumor constituent of Pogonopus speciosus” (J Nat Prod, 1990)
